According to US10800772B2 (Gilead Sciences, Inc., priority 2016, dated 2020):
Read-outs that look alike come from different tables or passages of the source.

Tests used:
Format in all cases: cell-based, HIV-1
[1] = tested on: HIV-IIIb IN T174I DE; test: Antiviral assay in MT4 cells, HIV-IIIb IN T174I DE virus (from dose escalation passaging); conditions: Human immunodeficiency virus 1, IIIB, MT4, 120 h, read-out: T174I DE EC50, MT4 cells, HIV-IIIb IN T174I DE (dose escalation), 5 days, CellTiter-Glo
Procedure: (§1) Antiviral Assay in MT4 Cells
(§2) For the antiviral assay, 0.4 μL of 189X test concentration of 3-fold serially diluted compound in DMSO was added to 40 μL of cell growth medium (RPMI 1640, 10% FBS, 1% Penicillin-Streptomycin, 1% L-Glutamine, 1% HEPES) in each well of 384-well plate (10 concentrations) in quadruplicate.
(§3) 1 mL Aliquots of MT4 cells were pre-infected for 3 hours at 37° C. with 25 μL of cell growth medium (mock-infected) or a fresh 1:250 dilution of an HIV-IIIb (wildtype, IN T174I BT, or IN T174I DE) concentrated ABI stock (0.004 m.o.i.). IN T174I BT virus was derived from viral breakthrough (BT) assay as described in Mulato, A.; Hansen, D.; Thielen, A.; Porter, D.; Stepan, G.; White, K.; Daeumer, M.; Cihlar, T.; Yant, S. R. AIDS Research and Human Retrovirues, July 2016, ahead of print. doi:10.1089/aid.2016.0071. IN T174I DE virus was derived from serial passaging with dose escalation (DE) of test compound. Infected and uninfected cells were diluted in cell growth media and 35 μL (2000 cells) was added to each well of the assay plates.
(§4) Assay plates were then maintained in a humidified, 5% CO2 incubator at 37° C. After 5 days of incubation, 25 μl of 2× concentrated CellTiter-Glo™ Reagent (catalog # G7573, Promega Biosciences, Inc., Madison, Wis.) was added to each well of the assay plate. Cell lysis was carried out by incubating at room temperature for 10 minutes and then chemiluminescence was read using an Envision plate reader (PerkinElmer). EC50 values were calculated as the compound concentration that caused a 50% […] in luminescence signal, a measure of HIV-1 replication.

[2] = tested on: HIV-IIIb (wildtype); test: Antiviral assay in MT4 cells, HIV-IIIb wildtype; conditions: read-out: WT EC50
Procedure: as §1, §2, §3, §4

[3] = tested on: HIV-IIIb IN T174I BT; test: Antiviral assay in MT4 cells, HIV-IIIb IN T174I BT virus (from viral breakthrough); conditions: Human immunodeficiency virus 1, IIIB, MT4, 120 h, read-out: T174I BT EC50, MT4 cells, HIV-IIIb IN T174I BT (viral breakthrough), 5 days, CellTiter-Glo
Procedure: as §1, §2, §3, §4

[4] = Human immunodeficiency virus 1, IIIB, MT4, 120 h
[5] = Human immunodeficiency virus 1, 120 h, MT4 cells, HIV-IIIb wildtype, 5 days, CellTiter-Glo

SMILES	EC50 [1] [nM]	EC50 [2, 4] [nM]	EC50 [3] [nM]	EC50 [2, 5] [nM]
CCOC(=O)N1CCC(c2nn(C)c3ccc(-c4nc5cc(C)c([C@H](OC(C)(C)C)C(=O)O)c(-c6ccc(Cl)cc6)c5s4)cc23)CC1 [Compound 24]	1090	16	769	
Cc1cc2nc(-c3ccc4c(c3)c(C3CCN(C5CN(C(=O)OC(C)(C)C)C5)CC3)nn4C)sc2c(-c2ccc(Cl)cc2)c1[C@H](OC(C)(C)C)C(=O)O [Compound 28, (S)-2-(tert-butoxy)-2-(2-(3-(1-(1-(tert-butoxycarbonyl)azetidin-3-yl)piperidin-4-yl)-1-methyl-1H-indazol-5-yl)-7-(4-chlorophenyl)-5-methylbenzo[d]thiazol-6-yl)acetic Acid]	2260	73	1800	
Cc1cc2nc(-c3ccc4c(c3)c(C3CCN(C5CNC5)CC3)nn4C)sc2c(-c2ccc(Cl)cc2)c1[C@H](OC(C)(C)C)C(=O)O [Compound 29, (S)-2-(2-(3-(1-(azetidin-3-yl)piperidin-4-yl)-1-methyl-1H-indazol-5-yl)-7-(4-chlorophenyl)-5-methylbenzo[d]thiazol-6-yl)-2-(tert-butoxy)acetic acid]	823		646	52
CC(=O)N1CC(N2CCC(c3nn(C)c4ccc(-c5nc6cc(C)c([C@H](OC(C)(C)C)C(=O)O)c(-c7ccc(Cl)cc7)c6s5)cc34)CC2)C1 [Compound 30, (S)-2-(2-(3-(1-(1-acetylazetidin-3-yl)piperidin-4-yl)-1-methyl-1H-indazol-5-yl)-7-(4-chlorophenyl)-5-methylbenzo[d]thiazol-6-yl)-2-(tert-butoxy)acetic acid]	187	12	111	
Cc1cc2nc(-c3ccc4c(c3)c(C3CCN(C5CN(C)C5)CC3)nn4C)sc2c(-c2ccc(Cl)cc2)c1[C@H](OC(C)(C)C)C(=O)O [Compound 31, (S)-2-(tert-butoxy)-2-(7-(4-chlorophenyl)-5-methyl-2-(1-methyl-3-(1-(1-methylazetidin-3-yl)piperidin-4-yl)-1H-indazol-5-yl)benzo[d]thiazol-6-yl)acetic acid]	236	12	138	
CC(=O)N1CC(N2CCC(c3nn(CCN(C)C)c4ccc(-c5nc6cc(C)c([C@H](OC(C)(C)C)C(=O)O)c(-c7ccc(Cl)cc7)c6s5)cc34)CC2)C1 [Compound 33, (S)-2-(2-(3-(1-(1-acetylazetidin-3-yl)piperidin-4-yl)-1-(2-(dimethylamino)ethyl)-1H-indazol-5-yl)-7-(4-chlorophenyl)-5-methylbenzo[d]thiazol-6-yl)-2-(tert-butoxy)acetic acid]	1020	5	587	
Cc1cc2nc(-c3ccc4[nH]nc(C5CCN(C6COC6)CC5)c4c3)sc2c(-c2ccc(Cl)cc2)c1[C@H](OC(C)(C)C)C(=O)O [Compound 34, (S)-2-(tert-butoxy)-2-(7-(4-chlorophenyl)-5-methyl-2-(3-(1-(oxetan-3-yl)piperidin-4-yl)-1H-indazol-5-yl)benzo[d]thiazol-6-yl)acetic acid]	1170		968	31
CCn1nc(C2CCN(C3COC3)CC2)c2cc(-c3nc4cc(C)c([C@H](OC(C)(C)C)C(=O)O)c(-c5ccc(Cl)cc5)c4s3)ccc21 [Compound 35, (S)-2-(tert-butoxy)-2-(7-(4-chlorophenyl)-2-(1-ethyl-3-(1-(oxetan-3-yl)piperidin-4-yl)-1H-indazol-5-yl)-5-methylbenzo[d]thiazol-6-yl)acetic acid]	238	4	84	
CCn1nc2ccc(-c3nc4cc(C)c([C@H](OC(C)(C)C)C(=O)O)c(-c5ccc(Cl)cc5)c4s3)cc2c1C1CCN(C2COC2)CC1 [Compound 36, (S)-2-(tert-butoxy)-2-(7-(4-chlorophenyl)-2-(2-ethyl-3-(1-(oxetan-3-yl)piperidin-4-yl)-2H-indazol-5-yl)-5-methylbenzo[d]thiazol-6-yl)acetic acid]	3580	14	1080	
Cc1cc2nc(-c3ccc4c(c3)c(C3CCN(C5COC5)CC3)nn4C3CC3)sc2c(-c2ccc(Cl)cc2)c1[C@H](OC(C)(C)C)C(=O)O [Compound 38, (S)-2-(tert-butoxy)-2-(7-(4-chlorophenyl)-2-(1-cyclopropyl-3-(1-(oxetan-3-yl)piperidin-4-yl)-1H-indazol-5-yl)-5-methylbenzo[d]thiazol-6-yl)acetic acid]	349	8	293	
Cc1cc2nc(-c3ccc4c(c3)c(C3CCN(C5COC5)CC3)nn4C(F)F)sc2c(-c2ccc(Cl)cc2)c1[C@H](OC(C)(C)C)C(=O)O [Compound 39, (S)-2-(tert-butoxy)-2-(7-(4-chlorophenyl)-2-(1-(difluoromethyl)-3-(1-(oxetan-3-yl)piperidin-4-yl)-1H-indazol-5-yl)-5-methylbenzo[d]thiazol-6-yl)acetic acid]	1150	13	651	
[2H]C([2H])([2H])n1nc(C2CCN(C3COC3)CC2)c2cc(-c3nc4cc(C)c([C@H](OC(C)(C)C)C(=O)O)c(-c5ccc(Cl)cc5)c4s3)ccc21 [Compound 40, (S)-2-(tert-butoxy)-2-(7-(4-chlorophenyl)-5-methyl-2-(1-(methyl-d3)-3-(1-(oxetan-3-yl)piperidin-4-yl)-1H-indazol-5-yl)benzo[d]thiazol-6-yl)acetic acid]	518	10	257	
Cc1cc2nc(-c3ccc4c(c3)c(C3CCN(C5COC5)CC3)nn4CC(F)(F)F)sc2c(-c2ccc(Cl)cc2)c1[C@H](OC(C)(C)C)C(=O)O [Compound 41, (S)-2-(tert-butoxy)-2-(7-(4-chlorophenyl)-5-methyl-2-(3-(1-(oxetan-3-yl)piperidin-4-yl)-1-(2,2,2-trifluoroethyl)-1H-indazol-5-yl)benzo[d]thiazol-6-yl)acetic acid]	5310	3830	4980	
Cc1cc2nc(-c3ccc4c(c3)c(C3CCN(C5COC5)CC3)nn4CC(F)F)sc2c(-c2ccc(Cl)cc2)c1[C@H](OC(C)(C)C)C(=O)O [Compound 42, (S)-2-(tert-butoxy)-2-(7-(4-chlorophenyl)-2-(1-(2,2-difluoroethyl)-3-(1-(oxetan-3-yl)piperidin-4-yl)-1H-indazol-5-yl)-5-methylbenzo[d]thiazol-6-yl)acetic acid]	5710	5040	5710	
CC(=O)N1CC(N2CCC(c3nn(C(F)F)c4ccc(-c5nc6cc(C)c([C@H](OC(C)(C)C)C(=O)O)c(-c7ccc(Cl)cc7)c6s5)cc34)CC2)C1 [Compound 43, (S)-2-(2-(3-(1-(1-acetylazetidin-3-yl)piperidin-4-yl)-1-(difluoromethyl)-1H-indazol-5-yl)-7-(4-chlorophenyl)-5-methylbenzo[d]thiazol-6-yl)-2-(tert-butoxy)acetic acid]	409	26	313	
COC(=O)N1CC(N2CCC(c3nn(C(F)F)c4ccc(-c5nc6cc(C)c([C@H](OC(C)(C)C)C(=O)O)c(-c7ccc(Cl)cc7)c6s5)cc34)CC2)C1 [Compound 44, (S)-2-(tert-butoxy)-2-(7-(4-chlorophenyl)-2-(1-(difluoromethyl)-3-(1-(1-(methoxycarbonyl)azetidin-3-yl)piperidin-4-yl)-1H-indazol-5-yl)-5-methylbenzo[d]thiazol-6-yl)acetic acid]	776	30	600	
CC(=O)N1CC(N2CCC(c3nn(C4CC4)c4ccc(-c5nc6cc(C)c([C@H](OC(C)(C)C)C(=O)O)c(-c7ccc(Cl)cc7)c6s5)cc34)CC2)C1 [Compound 45, (S)-2-(2-(3-(1-(1-acetylazetidin-3-yl)piperidin-4-yl)-1-cyclopropyl-1H-indazol-5-yl)-7-(4-chlorophenyl)-5-methylbenzo[d]thiazol-6-yl)-2-(tert-butoxy)acetic Acid]	287	17	174	
COC(=O)N1CC(N2CCC(c3nn(C4CC4)c4ccc(-c5nc6cc(C)c([C@H](OC(C)(C)C)C(=O)O)c(-c7ccc(Cl)cc7)c6s5)cc34)CC2)C1 [Compound 46, (S)-2-(tert-butoxy)-2-(7-(4-chlorophenyl)-2-(1-cyclopropyl-3-(1-(1-(methoxycarbonyl)azetidin-3-yl)piperidin-4-yl)-1H-indazol-5-yl)-5-methylbenzo[d]thiazol-6-yl)acetic acid]	716	17	352	
